The source of these data is US8916565B2, “Pyrrolopyrazine-spirocyclic piperidine amides as modulators of ion channels” (priority 2011, dated 2014).

The term IC50 denotes the midpoint of a concentration-inhibition curve.

The structures appear in SMILES notation. A value given as a limit tells only on which side of the number the result lay.

This test deals with human NaV subtype, like NaV 1.7 (Homo sapiens, UniProt Q15858). The test can be described thus: E-VIPR optical membrane potential assay with electrical stimulation. Type of test: cell-based. To be noted: active against one or more sodium channels; Table 3 does not name the assay or NaV subtype; read-out: Binned Activity Data (IC50).
Sequence of human NaV subtype, like NaV 1.7 (Q15858 whole entry): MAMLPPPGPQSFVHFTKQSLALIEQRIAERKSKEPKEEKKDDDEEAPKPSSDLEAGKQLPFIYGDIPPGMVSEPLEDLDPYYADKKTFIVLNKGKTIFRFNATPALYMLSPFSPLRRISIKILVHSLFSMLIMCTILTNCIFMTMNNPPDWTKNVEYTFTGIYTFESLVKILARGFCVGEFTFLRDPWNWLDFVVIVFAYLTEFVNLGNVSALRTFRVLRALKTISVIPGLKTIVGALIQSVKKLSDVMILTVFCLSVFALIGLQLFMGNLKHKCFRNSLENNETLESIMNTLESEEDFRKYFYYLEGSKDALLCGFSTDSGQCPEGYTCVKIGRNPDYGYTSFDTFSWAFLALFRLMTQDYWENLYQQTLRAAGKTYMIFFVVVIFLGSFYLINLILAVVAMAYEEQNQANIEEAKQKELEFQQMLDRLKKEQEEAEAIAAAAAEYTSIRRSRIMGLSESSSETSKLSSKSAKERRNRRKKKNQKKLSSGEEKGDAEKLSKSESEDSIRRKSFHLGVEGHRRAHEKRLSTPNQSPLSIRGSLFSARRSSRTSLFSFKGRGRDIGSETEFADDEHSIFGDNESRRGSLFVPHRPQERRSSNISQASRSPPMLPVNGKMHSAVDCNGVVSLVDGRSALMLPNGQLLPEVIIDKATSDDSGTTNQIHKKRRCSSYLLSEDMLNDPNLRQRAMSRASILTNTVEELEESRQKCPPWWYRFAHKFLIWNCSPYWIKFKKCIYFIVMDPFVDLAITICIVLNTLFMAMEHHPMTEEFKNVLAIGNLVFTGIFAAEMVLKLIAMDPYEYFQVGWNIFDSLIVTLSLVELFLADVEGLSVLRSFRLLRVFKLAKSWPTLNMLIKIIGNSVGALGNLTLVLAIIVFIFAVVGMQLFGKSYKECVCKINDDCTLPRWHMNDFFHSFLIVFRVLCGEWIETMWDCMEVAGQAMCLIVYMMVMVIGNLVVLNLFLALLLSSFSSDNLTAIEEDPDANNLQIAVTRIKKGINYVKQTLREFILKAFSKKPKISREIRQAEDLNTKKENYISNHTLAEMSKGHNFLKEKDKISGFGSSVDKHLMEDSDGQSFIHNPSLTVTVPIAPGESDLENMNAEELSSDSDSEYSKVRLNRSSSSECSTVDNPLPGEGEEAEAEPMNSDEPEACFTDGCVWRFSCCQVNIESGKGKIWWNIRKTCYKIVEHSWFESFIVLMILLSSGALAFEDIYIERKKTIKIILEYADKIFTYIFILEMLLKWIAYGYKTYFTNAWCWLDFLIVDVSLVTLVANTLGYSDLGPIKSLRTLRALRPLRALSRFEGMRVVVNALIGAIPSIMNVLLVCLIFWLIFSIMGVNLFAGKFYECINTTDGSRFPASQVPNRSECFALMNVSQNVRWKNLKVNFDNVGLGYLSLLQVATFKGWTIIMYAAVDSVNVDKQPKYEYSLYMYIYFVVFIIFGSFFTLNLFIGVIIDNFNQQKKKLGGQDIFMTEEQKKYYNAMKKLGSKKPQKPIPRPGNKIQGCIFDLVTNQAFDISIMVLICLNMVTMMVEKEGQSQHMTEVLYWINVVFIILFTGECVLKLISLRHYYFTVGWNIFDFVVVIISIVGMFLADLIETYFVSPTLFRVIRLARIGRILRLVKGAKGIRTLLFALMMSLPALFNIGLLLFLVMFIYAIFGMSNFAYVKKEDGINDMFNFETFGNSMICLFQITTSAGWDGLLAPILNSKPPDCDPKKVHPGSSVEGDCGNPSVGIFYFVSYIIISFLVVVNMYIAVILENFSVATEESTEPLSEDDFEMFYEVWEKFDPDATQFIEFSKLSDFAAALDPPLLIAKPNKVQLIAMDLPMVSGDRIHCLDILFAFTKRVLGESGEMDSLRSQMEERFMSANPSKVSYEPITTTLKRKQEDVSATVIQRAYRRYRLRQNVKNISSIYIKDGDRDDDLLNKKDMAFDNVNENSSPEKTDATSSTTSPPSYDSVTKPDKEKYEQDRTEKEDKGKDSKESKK
Regarding `Cc1cc(C(F)F)n2ncc(C(=O)N3CCC4(CC3)NCCn3c(C(F)(F)F)ccc34)c2n1` [Compound 159], the IC50 is 2000 to 5000 nM.

As for `CC(C)Oc1ccc(C(=O)N2CCC3(CC2)c2ccc(C(=O)C(F)(F)F)n2CCN3C)cc1CO` [Compound 160], the IC50 is at most 2000 nM.

As to `Cc1cc(C(=O)N2CCC3(CC2)c2ccc(C(=O)C4(C)CC4)n2CCN3C)ccc1O` [Compound 161], the IC50 was at most 2000 nM.

On to `CC(C)Nc1ccnc2c(C(=O)N3CCC4(CC3)c3ccc(C(F)(F)F)n3CCN4C)cnn12` [Compound 162], for which the IC50 is at most 2000 nM.

For the compound `CC(=O)c1ccc2n1CCN(C)C21CCN(C(=O)c2ccc(-c3ccccc3)cc2)CC1` [Compound 163], the IC50 is above 5000 nM.

Turning to `COc1ccc(C(=O)N2CCC3(CC2)c2ccc(C(=O)C(F)(F)F)n2C(C)CN3C)cc1C` (stereo not drawn) [Compound 164], the IC50 is at most 2000 nM.

`Cc1cc(C(=O)N2CCC3(CC2)c2ccc(C(F)(F)F)n2CCN3CC#N)ccc1OC(C)C` [Compound 165]: the IC50 was at most 2000 nM.

With `CN1CCn2c(C(F)(F)F)ccc2C12CCN(C(=O)c1cccc(Cl)c1)CC2` [Compound 166], the IC50 was above 5000 nM.

On to `CCN1CCn2c(C(F)(F)F)ccc2C12CCN(C(=O)c1ccc(OC(C)C)c(OC)c1)CC2` [Compound 167], for which the IC50 was at most 2000 nM.

Turning to `COc1cc(C(=O)N2CCC3(CC2)c2ccc(C(F)(F)F)n2CCN3C)ccc1OCCOC(F)(F)F` [Compound 168], the IC50 was at most 2000 nM.

As for `Cc1cc(-c2ccc(C(=O)N3CCC4(CC3)c3ccc(C(=O)C(F)(F)F)n3CCN4C)cc2C)ccn1` [Compound 169], the IC50 was at most 2000 nM.

Turning to `COc1cc(C(=O)N2CCC3(CC2)c2ccc(C(F)(F)F)n2CCN3C(C)=O)ccc1OC(C)C` [Compound 170], the IC50 was above 5000 nM.

Consider `COc1cc(C(=O)N2CCC3(CC2)NCC(C)n2c(C(=O)C(F)(F)F)ccc23)ccc1OCCOC(F)(F)F` (stereo not drawn) [Compound 171], for which the IC50 was at most 2000 nM.

With `CN1CCn2c(C(=O)C(F)(F)F)ccc2C12CCN(C(=O)c1ccc(-c3ccccc3)cc1)CC2` [Compound 172], the IC50 is at most 2000 nM.

`COc1ccc(C(=O)N2CCC3(CC2)NCC(C)n2c(C(=O)C(F)(F)F)ccc23)cc1C(F)(F)F` (stereo not drawn) [Compound 173]: the IC50 was at most 2000 nM.

For `CC(=O)c1ccc2n1C(C)(C)CN(C)C21CCN(C(=O)c2ccc(OC(C)C)c(C)c2)CC1` [Compound 174], the IC50 was at most 2000 nM.

As for `CN1CCn2c(C(=O)C(F)(F)F)ccc2C12CCN(C(=O)c1ccc(OCC(F)(F)F)cc1)CC2` [Compound 175], the IC50 was at most 2000 nM.

Regarding `CC(C)S(=O)(=O)c1ccc(C(=O)N2CCC3(CC2)c2ccc(C(=O)C(C)(C)C)n2CCN3C)cc1` [Compound 176], the IC50 fell in the range of 2000 to 5000 nM.

On to `Cc1cc(C(=O)N2CCC3(CC2)c2ccc(C(F)(F)F)n2CCN3C)ccc1F` [Compound 177], for which the IC50 was above 5000 nM.

As for `Cc1nc(C(=O)N2CCC3(CC2)c2cc(C(=O)C(F)(F)F)cn2C(C)(C)CN3C)ccc1OC(C)C` [Compound 178], the IC50 is above 5000 nM.

As to `COc1cc(C(=O)N2CCC3(CC2)N[C@H](C)Cn2c(C(F)(F)F)ccc23)ccc1OC(C)C` [Compound 179], the IC50 was 2000 to 5000 nM.

Take `COc1ccc(C(=O)N2CCC3(CC2)c2ccc(C(=O)c4ccccc4)n2CCN3C)cc1C(F)(F)F` [Compound 180]: the IC50 is at most 2000 nM.

Consider `CCCCOc1ccc(C(=O)N2CCC3(CC2)NCCn2c(C(F)(F)F)ccc23)cc1OC` [Compound 181], for which the IC50 was at most 2000 nM.

Consider `Cc1cc(C(=O)N2CCC3(CC2)c2ccc(C(=O)C(C)C)n2CCN3C)ccc1OC(C)C` [Compound 182], for which the IC50 is at most 2000 nM.

Take `CC(C)C(=O)c1ccc2n1CCN(C)C21CCN(C(=O)c2ccc(C(C)(C)O)c(F)c2)CC1` [Compound 183]: the IC50 is at most 2000 nM.

`CN1CCn2c(C(F)(F)F)cc(F)c2C12CCN(C(=O)c1ccc(C3CC3)cc1)CC2` [Compound 184]: the IC50 was 2000 to 5000 nM.

Take `CN1CCn2c(C(=O)C(F)(F)F)ccc2C12CCN(C(=O)c1ccc(OC(F)(F)F)cc1)CC2` [Compound 185]: the IC50 is at most 2000 nM.
